Laboratory results reported in patent US11485736B2 (KSQ Therapeutics, Inc., priority 2018, dated 2022).
Where two headings read alike, the source gives them in different places.

Columns and labels:
USP1/UAF1 = USP1/UAF1 (Homo sapiens (Human), UniProt O94782); test: Deubiquitination assay for USP1/UAF1 activity (ubiquitin-rhodamine 110); format: biochemical; details: 0.05 nM USP1/UAF1, 150 nM ubiquitin-rhodamine
Protocol: Certain Compounds of the Disclosure were assessed for USP1/UAF1 activity in a Ubiquitin Rhodamine assay modified from those described previously.
Deubiquitinase activity was measured using ubiquitin-rhodamine 110 as a substrate. Cleavage of the amide bond between rhodamine and the c-terminal glycine of ubiquitin yields an increase in fluorescence signal. The assay was conducted in 20 ul total volume of assay buffer (50 mM Tris-HCl, pH 7.8, 0.5 mM EDTA, 0.01% Bovine Serum Albumin, 1 mM DTT, 0.01% Tween-20), and 0.05 nM USP1/UAF1 enzyme.
Compounds, dissolved in DMSO were tested in dose response format, beginning at 10 uM.
Compounds depicted below were added to enzyme/assay buffer mix and incubated 10 min.
Data for all assay formats was calculated as percent inhibition compared with control wells. […] IC50 values were calculated using the standard four parameter curve fitting algorithm in either Prism GraphPad (La Jolla, Calif.) software, or Collaborative Drug Discovery (Burlingame, Calif.) CDD Vault.

[1] = ADME solubility determination at pH 2.0 and pH 7.4; format: physicochemical; details: aqueous buffer, thermodynamic from solid, LC-MS/MS
How it was run: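 Dried residues of 10 mM DMSO stocks were shaken in PBS pH 7.4 or pH 2.0 for 24 hours at 25° C. and 1,100 rpm. After centrifugation, supernatants were quantified by LC-MS/MS against a standard of known concentration, applying a dilution factor.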

[2] = Liver microsomal stability, rat liver microsomes; format: in vitro ADME; details: 1 μM compound, NADPH, read-out: t1/2 (min) in RLM
How it was run: (§1)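 Compound (1 μM final) was incubated with prewarmed human or rat liver microsomes (1 mg/mL in 100 mM phosphate master mix) plus NADPH; aliquots at 0.5–30 minutes were quenched in cold acetonitrile and quantified by LC-MS/MS. Half-life came from the ln(% remaining) versus time slope, converted to CLint (μL/min/mg prot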

[3] = Liver microsomal stability, human liver microsomes; format: in vitro ADME; details: 1 μM compound, NADPH, read-out: t1/2 (min) in HLM
How it was run: as §1

[4] = PBS pH 2.0, shaken at 25° C. for 24 hours, read-out: Solubility at pH 2.0
[5] = PBS pH 7.4, shaken at 25° C. for 24 hours, read-out: Solubility at pH 7.4

Chain of USP1/UAF1 (O94782 whole entry): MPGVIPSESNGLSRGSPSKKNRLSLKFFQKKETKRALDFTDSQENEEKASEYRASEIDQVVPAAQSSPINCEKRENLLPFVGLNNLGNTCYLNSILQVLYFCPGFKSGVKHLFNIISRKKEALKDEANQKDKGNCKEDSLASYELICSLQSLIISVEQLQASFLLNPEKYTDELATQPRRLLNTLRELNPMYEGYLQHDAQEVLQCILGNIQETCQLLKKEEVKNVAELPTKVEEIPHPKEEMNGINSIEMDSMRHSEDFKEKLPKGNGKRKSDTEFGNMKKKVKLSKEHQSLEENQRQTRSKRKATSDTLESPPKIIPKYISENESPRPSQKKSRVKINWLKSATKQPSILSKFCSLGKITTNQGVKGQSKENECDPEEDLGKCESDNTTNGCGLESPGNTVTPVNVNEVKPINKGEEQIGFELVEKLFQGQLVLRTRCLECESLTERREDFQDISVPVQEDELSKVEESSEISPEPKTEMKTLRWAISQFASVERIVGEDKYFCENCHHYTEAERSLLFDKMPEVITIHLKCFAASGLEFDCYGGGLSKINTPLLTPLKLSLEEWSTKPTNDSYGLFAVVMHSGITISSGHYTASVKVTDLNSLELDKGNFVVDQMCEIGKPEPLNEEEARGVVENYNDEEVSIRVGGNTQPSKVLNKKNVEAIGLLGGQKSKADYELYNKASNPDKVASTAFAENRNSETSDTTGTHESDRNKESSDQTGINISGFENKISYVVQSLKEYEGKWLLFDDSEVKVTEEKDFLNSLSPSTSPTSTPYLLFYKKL
Chain of USP1/UAF1 (Q8TAF3 whole entry partner): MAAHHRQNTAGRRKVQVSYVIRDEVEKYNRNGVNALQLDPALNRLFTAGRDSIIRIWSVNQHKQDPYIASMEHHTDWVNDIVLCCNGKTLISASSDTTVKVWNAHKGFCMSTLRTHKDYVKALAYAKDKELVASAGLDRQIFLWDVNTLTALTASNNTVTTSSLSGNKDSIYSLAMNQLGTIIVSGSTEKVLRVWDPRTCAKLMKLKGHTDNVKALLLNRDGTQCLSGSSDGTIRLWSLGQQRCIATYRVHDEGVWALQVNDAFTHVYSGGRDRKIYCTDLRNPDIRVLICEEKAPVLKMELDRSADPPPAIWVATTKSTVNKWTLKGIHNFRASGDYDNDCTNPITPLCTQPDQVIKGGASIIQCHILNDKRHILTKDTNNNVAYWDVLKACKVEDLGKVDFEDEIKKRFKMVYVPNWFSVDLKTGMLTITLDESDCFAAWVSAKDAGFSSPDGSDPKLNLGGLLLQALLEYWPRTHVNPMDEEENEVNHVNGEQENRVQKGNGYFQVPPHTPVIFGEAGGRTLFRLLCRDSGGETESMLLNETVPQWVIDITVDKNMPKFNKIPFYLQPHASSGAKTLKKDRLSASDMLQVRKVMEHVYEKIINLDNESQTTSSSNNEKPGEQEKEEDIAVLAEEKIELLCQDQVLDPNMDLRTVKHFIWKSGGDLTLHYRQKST

IC50 (USP1/UAF1; Table 2) [nM] | IC50 (USP1/UAF1; Table 3) [nM] | SMILES | other results
> 200 |  | COc1cnccc1-c1ncc2cnn(Cc3ccc(-c4nc(C(F)(F)F)cn4C)cc3)c2n1 | 
100 to 200 |  | Cc1cccc(S(C)(=O)=O)c1-c1ncc2cnn(Cc3ccc(-c4nc(C(F)(F)F)cn4C)cc3)c2n1 | 
10 to 100 |  | COc1nccc(C#N)c1-c1ncc2cnn(Cc3ccc(-c4nc(C(F)(F)F)cn4C)cc3)c2n1 | 
< 10 |  | Cc1nc(-c2ccccc2C(C)C)nc2c1cnn2Cc1ccc(-c2nc(C(F)(F)F)cn2C)cc1 | 
 | 10 to 100 | [2H]C([2H])([2H])n1cc(C(F)(F)F)nc1-c1ccc(Cn2ncc3cnc(-c4c(OC)ncnc4C4CC4)nc32)cc1 | 
 | 10 to 100 | Cn1cc(C(F)(F)F)nc1-c1ccc(Cn2ncc3cnc(-c4c(C#N)ncnc4C4CC4)nc32)cc1 | 
 | 10 to 100 | COc1ncnc(C2CC2)c1-c1ncc2cnn(Cc3ccc(-n4nc(C#N)cc4C)cc3)c2n1 | 
 | 100 to 200 | COc1ncnc(C)c1-c1ncc2cnn(Cc3ccc(-n4nc(C(F)(F)F)cc4OC)cc3)c2n1 | 
 | 100 to 200 | Cn1cc(C(F)(F)F)nc1-c1ccc(Cn2ncc3cnc(-c4c(OC5CCOC5)ncnc4C4CC4)nc32)cc1 (stereo not drawn) | 
 | 100 to 200 | CCn1cc(C(F)(F)F)nc1-c1ccc(Cn2ncc3cnc(-c4c(OCc5ccccc5)ncnc4C4CC4)nc32)cc1 | 
 | > 200 | COc1ncnc(C2CC2)c1-c1ncc2cnn(Cc3ccc(-c4nc(C(F)F)nn4C)cc3)c2n1 | 
 | > 200 | Cn1cc(C(F)(F)F)nc1-c1ccc(Cn2ncc3cnc(-c4c(OCc5ccccc5)ncnc4C4CC4)nc32)cc1 | 
 | > 200 | COc1ncnc(C2CC2)c1-c1ncc2cnn(Cc3ccc(-c4nc(OC)n(C)n4)cc3)c2n1 | 
 | > 200 | COc1ncnc(C2CC2)c1-c1ncc2cnn(Cc3ccc(-c4nc(C(F)(F)F)cn4CC(=O)N(C)C)cc3)c2n1 | 
 | > 200 | CN(C)c1ncnc(C2CC2)c1-c1ncc2cnn(Cc3ccc(-c4nc(C(F)(F)F)cn4C)cc3)c2n1 | 
 | > 200 | COc1ncnc(C2CC2)c1-c1ncc2cnn(Cc3ccc(-c4nc(C(F)F)n(C)n4)cc3)c2n1 | 
 | > 200 | Cn1cc(C(F)(F)F)nc1-c1ccc(Cn2ncc3cnc(-c4c(C5CC5)ncnc4N4CCCC4)nc32)cc1 | 
 | > 200 | Cc1ncnc(N(C)C)c1-c1ncc2cnn(Cc3ccc(-n4nc(C(F)(F)F)cc4C)cc3)c2n1 | 
 | > 200 | Cn1cc(C(F)(F)F)nc1-c1ccc(Cn2ncc3cnc(-c4c(C5CC5)ncnc4N4CCC4)nc32)cc1 | 
 |  | COc1ncnc(C2CC2)c1-c1ncc2ccn(Cc3ccc(-c4nc(C(F)(F)F)cn4C(C)C)cc3)c2n1 | IC50 (USP1/UAF1; Table 4): < 10 nM
 |  | COc1ncnc(C)c1-c1ncc2ncn(Cc3ccc(-n4nc(C(F)(F)F)cc4C)cc3)c2n1 | IC50 (USP1/UAF1; Table 4): > 200 nM
 | 10 to 100 | CCn1cc(C(F)(F)F)nc1-c1ccc([C@@H](C)n2ncc3cnc(-c4c(OC)ncnc4C4CCC4)nc32)cc1 (single isomer, unassigned) [drawing 742] | 
 | 10 to 100 | COc1ncnc(C2CC2)c1-c1ncc2cnn([C@@H](C)c3ccc(-c4nc(C(F)(F)F)cn4C)cc3)c2n1 (single isomer, unassigned) [drawing 743] | 
 | 10 to 100 | CCn1cc(C(F)(F)F)nc1-c1ccc([C@@H](C)n2ncc3cnc(-c4c(OC)ncnc4C4CC4)nc32)cc1 (single isomer, unassigned) [drawing 747] | 
 | 10 to 100 | CCn1cc(C(F)(F)F)nc1-c1ccc([C@H](C)n2ncc3cnc(-c4c(OC)ncnc4C4CCC4)nc32)cc1 (single isomer, unassigned) [drawing 748] | 
 | 10 to 100 | CCn1cc(C(F)(F)F)nc1-c1ccc([C@H](C)n2ncc3cnc(-c4c(OC)ncnc4C4CC4)nc32)cc1 (single isomer, unassigned) [drawing 751] | 
 | 10 to 100 | COc1ncnc(C2CC2)c1-c1ncc2cnn([C@H](C)c3ccc(-c4nc(C(F)(F)F)cn4C)cc3)c2n1 (single isomer, unassigned) [drawing 759] | 

IC50 (USP1/UAF1; Table 2) [nM] | IC50 (USP1/UAF1; Table 3) [nM] | SMILES | other results
 |  | CCc1nc2cnc(-c3c(OC)ncnc3C3CC3)nc2n1Cc1ccc(-n2nc(C(F)(F)F)cc2C)cc1 [Example 209, 2-(4-cyclopropyl-6-methoxypyrimidin-5-yl)-8-ethyl-9-(4-(5-methyl-3-(trifluoromethyl)-1H-pyrazol-1-yl)benzyl)-9H-purine] | solubility at 24 h [1, 4]: > 10 µM; solubility at 24 h [1, 5]: > 10 µM; half-life at 1 μM [2]: > 25 min; half-life at 1 μM [3]: < 25 min
 |  | COc1ncnc(C2CC2)c1-c1ncc2ncn(Cc3ccc(-n4nc(C(F)(F)F)cc4C)cc3)c2n1 [Example 210] | solubility at 24 h [1, 4]: > 10 µM; solubility at 24 h [1, 5]: > 10 µM; half-life at 1 μM [2]: > 25 min; half-life at 1 μM [3]: > 25 min
 |  | COc1ncnc(C2CC2)c1-c1ncc2nc(C)n(Cc3ccc(-n4nc(C(F)(F)F)cc4C)cc3)c2n1 [Example 211] | solubility at 24 h [1, 4]: > 10 µM; solubility at 24 h [1, 5]: > 10 µM; half-life at 1 μM [2]: > 25 min; half-life at 1 μM [3]: < 25 min
 |  | COc1ncnc(C2CC2)c1-c1ncc2nc(C(C)C)n(Cc3ccc(-n4nc(C(F)(F)F)cc4C)cc3)c2n1 [Example 212] | solubility at 24 h [1, 4]: < 10 µM; solubility at 24 h [1, 5]: < 10 µM; half-life at 1 μM [2]: > 25 min; half-life at 1 μM [3]: > 25 min
 |  | COc1ncnc(C2CC2)c1-c1ncc2nc(C3CC3)n(Cc3ccc(-n4nc(C(F)(F)F)cc4C)cc3)c2n1 [Example 213] | solubility at 24 h [1, 4]: < 10 µM; solubility at 24 h [1, 5]: < 10 µM; half-life at 1 μM [2]: > 25 min; half-life at 1 μM [3]: > 25 min
 |  | COc1ncnc(C2CC2)c1-c1ncc2nc(C3CCC3)n(Cc3ccc(-n4nc(C(F)(F)F)cc4C)cc3)c2n1 [Example 214] | solubility at 24 h [1, 4]: < 10 µM; solubility at 24 h [1, 5]: < 10 µM; half-life at 1 μM [2]: > 25 min; half-life at 1 μM [3]: > 25 min
 |  | COc1ncnc(C2CC2)c1-c1ncc2nnn(Cc3ccc(-c4nc(C(F)(F)F)cn4C)cc3)c2n1 [Example 215, 5-(4-cyclopropyl-6-methoxypyrimidin-5-yl)-3-(4-(1-methyl-4-(trifluoromethyl)-1H-imidazol-2-yl)benzyl)-3H-[1,2,3]triazolo[4,5-d]pyrimidine] | solubility at 24 h [1, 4]: > 10 µM; solubility at 24 h [1, 5]: > 10 µM; half-life at 1 μM [2]: < 25 min; half-life at 1 μM [3]: > 25 min
100 to 200 |  | Cn1cc(C(F)(F)F)nc1-c1ccc(Cn2ncc3cnc(-c4ccccc4S(C)(=O)=O)nc32)cc1 [drawing 707] | 
100 to 200 |  | CCS(=O)(=O)c1ccccc1-c1ncc2cnn(Cc3ccc(-c4nc(C(F)(F)F)cn4C)cc3)c2n1 [drawing 709] | 
10 to 100 |  | Cc1cc(C(F)F)nn1-c1ccc(Cn2ncc3cnc(-c4cccnc4C(C)C)nc32)cc1 [drawing 710] | 
10 to 100 |  | COc1nccc(C)c1-c1ncc2cnn(Cc3ccc(-c4nc(C(F)(F)F)cn4C)cc3)c2n1 [drawing 711] | 
10 to 100 |  | COc1ncnc(C)c1-c1ncc2cnn(Cc3ccc(-c4nc(C(F)(F)F)cn4C)cc3)c2n1 [drawing 712] | 
10 to 100 |  | Cc1cc(C(F)(F)F)nn1-c1ccc(Cn2ncc3cnc(-c4cccnc4C(C)C)nc32)cc1 [drawing 713] | 
10 to 100 |  | COc1cccc(OC)c1-c1ncc2cnn(Cc3ccc(-c4nc(C(F)(F)F)cn4C)cc3)c2n1 [drawing 714] | 
10 to 100 |  | COc1ccccc1-c1ncc2cnn(Cc3ccc(-c4nc(C(F)(F)F)cn4C)cc3)c2n1 [drawing 715] | 
10 to 100 |  | Cc1cc(C(F)(F)F)nn1-c1ccc(Cn2ncc3cnc(-c4ccccc4C(C)C)nc32)cc1 [drawing 716] | 
10 to 100 |  | COc1cccc(C)c1-c1ncc2cnn(Cc3ccc(-c4nc(C(F)(F)F)cn4C)cc3)c2n1 [drawing 717] | 
10 to 100 |  | CC(C)c1ccccc1-c1ncc2ncn(Cc3ccc(-c4nc(C(F)(F)F)cn4C)cc3)c2n1 [drawing 719] | 
10 to 100 |  | COc1ncnc(C2CC2)c1-c1ncc2cnn(Cc3ccc(-c4nc(C(F)(F)F)cn4C)cc3)c2n1 [drawing 720] | 
10 to 100 |  | CC(C)c1ncccc1-c1ncc2cnn(Cc3ccc(-c4nc(C(F)(F)F)cn4C)cc3)c2n1 [drawing 721] | 
10 to 100 |  | CSc1cccc(C)c1-c1ncc2cnn(Cc3ccc(-c4nc(C(F)(F)F)cn4C)cc3)c2n1 [drawing 722] | 
< 10 |  | COc1ncnc(C2CC2)c1-c1ncc2cnn(Cc3ccc(-n4nc(C(F)(F)F)cc4C)cc3)c2n1 [drawing 723] | 
< 10 |  | COc1cccc(C2CC2)c1-c1ncc2cnn(Cc3ccc(-c4nc(C(F)(F)F)cn4C)cc3)c2n1 [drawing 724] | 
< 10 |  | CC(C)c1ccccc1-c1ncc2cnn(Cc3ccc(-c4nc(C(F)(F)F)cn4C4CN(C)C4)cc3)c2n1 [drawing 725] | 
< 10 |  | CC(C)c1ccccc1-c1ncc2cnn(C(C)c3ccc(-c4nc(C(F)(F)F)cn4C)cc3)c2n1 (stereo not drawn) [drawing 726] | 
< 10 |  | CC(C)c1c(F)cccc1-c1ncc2cnn(Cc3ccc(-c4nc(C(F)(F)F)cn4C)cc3)c2n1 [drawing 728] | 

SMILES | IC50 (USP1/UAF1; Table 2) [nM] | IC50 (USP1/UAF1; Table 3) [nM] | other results
CNc1ncnc(C2CC2)c1-c1ncc2cnn(Cc3ccc(-c4nc(C(F)(F)F)cn4C)cc3)c2n1 |  | 10 to 100 | 
